Test results taken from patent US20010003848A1, “DNA SEQUENCES FOR AMMONIUM TRANSPORTER, PLASMIDS, BACTERIA, YEASTS, PLANT CELLS AND PLANTS CONTAINING THE TRANSPORTER” (priority 1993, published 2001).
Where “and” joins values, the source holds several entries; their conditions need not be identical. Equal values may be shown once. Read-outs that look alike come from different tables or passages of the source.

Legend:
[1] = system: yeast strain 26972c::pFL61; experiment: Uptake of ^14C-methylamine in yeast strain 26972c::pFL61 (zero control, plasmid without cDNA insertion); assay type: cell-based, Saccharomyces cerevisiae; conditions: 10 mM glucose
Method: (§1) The yeast lines 26972c::pFL61, 26972c::pFL61-MEP-a and their starting lines S1278b (Dubois & Grenson, 1979, Mol Gen Genet 175: 67-76, MEP-1/MEP-2 ura3) were grown in liquid medium with 1.7 g yeast nitrogen base without ammonium and without amino acids (Difco), 20 g agarose, 1% glucose (w/v), 0.5 mg/l proline until the culture reached the logarithmic phase. After centrifuging of each 25 ml of the culture the cells were washed with 10 mM phosphate pH 7 or pH 4 and taken up in 1.5 ml 10 mM phosphate buffer. Ten minutes before starting the transport measurements, it was made up to an end concentration of 10 mM glucose. […] of the suspension was added to a solution of 10 mM phosphate pH 4 or 7, 100 μM unlabelled methylamine and 5 μCi ^14C-labelled methylamine (0.1 mCi/1.9 μmol) (end concentrations). The uptake of the methylamine was measured after 10, 60, 120 and 180 seconds. For this, to 50 μl of starting material was taken and in a volume of 1 ml H2O+3 mM unlabelled methylamine absorbed on a glass fibre filter. After washing with 10 ml H2O+3 mM unlabelled methylamine the amount of ^14C-labelled methylamine taken up was measured by scintillation (Table Ia and Ib).

Saccharomyces cerevisiae = conditions: cited from earlier work
yeast strain Σ1278b = experiment: Uptake of ^14C-methylamine in yeast strain Σ1278b; assay type: cell-based, Saccharomyces cerevisiae; conditions: 10 mM glucose; for Uptake of ^14C-methylamine in presence of 0.1 mM dinitrophenol (DNP): Σ1278b +DNP 0.1 mM; for Uptake of ^14C-methylamine in presence of carbonyl cyanide m-chlorophenylhydrazone (CCCP): Σ1278b +CCCP 10 pM
Method: as §1

[2] = system: yeast line 26972c::pFL61-MEP-a; assay type: cell-based, Saccharomyces cerevisiae; conditions: 10 mM glucose; for Uptake of ^14C-methylamine in presence of 0.1 mM dinitrophenol (DNP): 26972c::pFL61-MEP-a +DNP 0.1 mM; for Uptake of ^14C-methylamine: 26972c::pFL61-MEP-a, two independent series; for Uptake of ^14C-methylamine in presence of carbonyl cyanide m-chlorophenylhydrazone: 26972c::pF161 MEP-a +CCCP 10 pM
Method: as §1

Compound: Cl.N [NH4Cl]
- Uptake of ^14C-methylamine in presence of 0.5 mM NH4Cl ([1]; 26972c::pFL61, pH = 7, 10 sec): 271.60 cpm
- Uptake of ^14C-methylamine in presence of 0.5 mM NH4Cl ([1]; 26972c::pFL61, pH = 7, 60 sec): 795.80 cpm
- Uptake of ^14C-methylamine in presence of 0.5 mM NH4Cl ([1]; 26972c::pFL61, pH = 7, 120 sec): 1388.20 cpm
- Uptake of ^14C-methylamine in presence of 0.5 mM NH4Cl ([1]; 26972c::pFL61, pH = 7, 180 sec): 1773.00 cpm
- inhibition of methylamine-uptake functions (Saccharomyces cerevisiae; both transport functions of Saccharomyces): inhibitable
- Uptake of ^14C-methylamine in presence of 0.5 mM NH4Cl (yeast strain Σ1278b; 1278b, pH = 7, 10 sec): 356.60 cpm
- Uptake of ^14C-methylamine in presence of 0.5 mM NH4Cl (yeast strain Σ1278b; 1278b, pH = 7, 60 sec): 885.60 cpm
- Uptake of ^14C-methylamine in presence of 0.5 mM NH4Cl (yeast strain Σ1278b; 1278b, pH = 7, 120 sec): 1237.80 cpm
- Uptake of ^14C-methylamine in presence of 0.5 mM NH4Cl (yeast strain Σ1278b; 1278b, pH = 7, 180 sec): 1597.40 cpm

Compound: O=[N+]([O-])c1ccc(O)c([N+](=O)[O-])c1 [DNP]
- Uptake of ^14C-methylamine in presence of 0.1 mM dinitrophenol (DNP) (yeast strain Σ1278b; pH = 7, 10 sec): 167.20 cpm
- Uptake of ^14C-methylamine in presence of 0.1 mM dinitrophenol (DNP) (yeast strain Σ1278b; pH = 7, 60 sec): 386.00 cpm
- Uptake of ^14C-methylamine in presence of 0.1 mM dinitrophenol (DNP) (yeast strain Σ1278b; pH = 7, 120 sec): 706.80 cpm
- Uptake of ^14C-methylamine in presence of 0.1 mM dinitrophenol (DNP) (yeast strain Σ1278b; pH = 7, 180 sec): 906.00 cpm
- Uptake of ^14C-methylamine in presence of 0.1 mM dinitrophenol (DNP) ([2]; pH = 7, 10 sec): 378.00 cpm
- Uptake of ^14C-methylamine in presence of 0.1 mM dinitrophenol (DNP) ([2]; pH = 7, 60 sec): 1349.40 cpm
- Uptake of ^14C-methylamine in presence of 0.1 mM dinitrophenol (DNP) ([2]; pH = 7, 120 sec): 2794.44 cpm
- Uptake of ^14C-methylamine in presence of 0.1 mM dinitrophenol (DNP) ([2]; pH = 7, 180 sec): 2794.44 cpm

Compound: CN [^14C-methylamine, methylamine]
- Uptake of ^14C-methylamine ([1]; 26972c::pFL61, pH = 4, 10 sec, two independent series): 220.20 cpm and 117.20 cpm
- Uptake of ^14C-methylamine ([1]; 26972c::pFL61, pH = 4, 60 sec, two independent series): 200.60 cpm and 138.60 cpm
- Uptake of ^14C-methylamine ([1]; 26972c::pFL61, pH = 4, 120 sec, two independent series): 284.80 cpm and 197.40 cpm
- Uptake of ^14C-methylamine ([1]; 26972c::pFL61, pH = 4, 180 sec, two independent series): 317.60 cpm and 285.60 cpm
- Uptake of ^14C-methylamine ([1]; 26972c::pFL61, pH = 7, 10 sec): 202.20 cpm
- Uptake of ^14C-methylamine ([1]; 26972c::pFL61, pH = 7, 60 sec): 291.80 cpm
- Uptake of ^14C-methylamine ([1]; 26972c::pFL61, pH = 7, 120 sec): 524.80 cpm
- Uptake of ^14C-methylamine ([1]; 26972c::pFL61, pH = 7, 180 sec): 797.80 cpm
- maximum speed Vmax (Saccharomyces cerevisiae; high affinity transporter with low capacity): 20 nmol/min per mg cells (dry weight)
- Km (Saccharomyces cerevisiae; high affinity transporter with low capacity, read-out: Km value): 250 µM
- Vmax (Saccharomyces cerevisiae; low affinity system with high capacity): 50 nmol/min per mg cells
- Km (Saccharomyces cerevisiae; low affinity system with high capacity, read-out: Km): 2000 µM
- Vmax (Saccharomyces cerevisiae; low affinity system with medium capacity): 33 nmol/min per mg cells
- Km (Saccharomyces cerevisiae; low affinity system with medium capacity, read-out: Km): 20000 µM
- Uptake of ^14C-methylamine (yeast strain Σ1278b; 1278b, pH = 7, 10 sec): 469.60 cpm
- Uptake of ^14C-methylamine (yeast strain Σ1278b; 1278b, pH = 7, 60 sec): 1022.80 cpm
- Uptake of ^14C-methylamine (yeast strain Σ1278b; 1278b, pH = 7, 120 sec): 6176.36 cpm
- Uptake of ^14C-methylamine (yeast strain Σ1278b; 1278b, pH = 7, 180 sec): 16826.67 cpm
- Uptake of ^14C-methylamine (yeast strain Σ1278b; Σ1278b, pH = 4, 10 sec): 289.00 cpm
- Uptake of ^14C-methylamine (yeast strain Σ1278b; Σ1278b, pH = 4, 60 sec): 1151.20 cpm
- Uptake of ^14C-methylamine (yeast strain Σ1278b; Σ1278b, pH = 4, 120 sec): 19605.46 cpm
- Uptake of ^14C-methylamine (yeast strain Σ1278b; Σ1278b, pH = 4, 180 sec): 32651.43 cpm
- Uptake of ^14C-methylamine ([2]; pH = 4, 10 sec): 204.80 cpm and 214.80 cpm
- Uptake of ^14C-methylamine ([2]; pH = 4, 60 sec): 283.80 cpm and 345.60 cpm
- Uptake of ^14C-methylamine ([2]; pH = 4, 120 sec): 434.40 cpm and 594.60 cpm
- Uptake of ^14C-methylamine ([2]; pH = 4, 180 sec): 479.60 cpm and 842.20 cpm
- Uptake of ^14C-methylamine ([2]; pH = 7, 10 sec): 302.80 cpm and 352.20 cpm
- Uptake of ^14C-methylamine ([2]; pH = 7, 60 sec): 1247.80 cpm and 1292.20 cpm
- Uptake of ^14C-methylamine ([2]; pH = 7, 120 sec): 3152.50 cpm and 3478.28 cpm
- Uptake of ^14C-methylamine ([2]; pH = 7, 180 sec): 8490.83 cpm and 6099.39 cpm

Compound: N#CC(C#N)=NNc1cccc(Cl)c1 [CCCP, carbonyl cyanide m-chlorophenylhydrazone]
- Uptake of ^14C-methylamine in presence of carbonyl cyanide m-chlorophenylhydrazone (CCCP) (yeast strain Σ1278b; pH = 7, 10 sec): 173.20 cpm
- Uptake of ^14C-methylamine in presence of carbonyl cyanide m-chlorophenylhydrazone (CCCP) (yeast strain Σ1278b; pH = 7, 60 sec): 316.80 cpm
- Uptake of ^14C-methylamine in presence of carbonyl cyanide m-chlorophenylhydrazone (CCCP) (yeast strain Σ1278b; pH = 7, 120 sec): 460.40 cpm
- Uptake of ^14C-methylamine in presence of carbonyl cyanide m-chlorophenylhydrazone (CCCP) (yeast strain Σ1278b; pH = 7, 180 sec): 608.00 cpm
- Uptake of ^14C-methylamine in presence of carbonyl cyanide m-chlorophenylhydrazone ([2]; pH = 7, 10 sec): 484.60 cpm
- Uptake of ^14C-methylamine in presence of carbonyl cyanide m-chlorophenylhydrazone ([2]; pH = 7, 60 sec): 1407.00 cpm
- Uptake of ^14C-methylamine in presence of carbonyl cyanide m-chlorophenylhydrazone ([2]; pH = 7, 120 sec): 2597.92 cpm
- Uptake of ^14C-methylamine in presence of carbonyl cyanide m-chlorophenylhydrazone ([2]; pH = 7, 180 sec): 3620.36 cpm
